Common to all, as to assay type: cell-based
Experiment [1] has as its system mantle cell lymphoma cell (Mino or JeKo-1). The experiment can be described thus: Antiproliferative effect, MTS cell viability assay. The method, then: Antiproliferative effect of the exemplary compounds was assessed in B-cell malignancy models.
To assess the effect of the exemplary compounds on cell viability in B-cell malignancy models by degradation of CDK4/6 proteins, Mino cells were treated with varying concentrations of exemplary compounds (0, 0.0001, 0.001, 0.01, 0.1, 1 μM) or positive control (palbociclib and abemaciclib). Under these conditions, cell viability was determined by an MTS assay. Cytotoxicity was assayed by the determination of reduced tetrazolium (formazan) created by metabolically active cells as detected at 490 nanometers (nm) absorbance using a microplate reader (BMG Labtech, Cary, NC, USA).
The exemplary compounds attenuated the viability of Mino cells in a concentration-dependent manner at 72 h post treatment. Results are shown in Table 1 and FIGS. 2-15 for each exemplary compound.
For orientation: Tetrazolium dyes change colour on reduction, which living cells bring about.

Experiment [2] has as its target T1, CDK4 (Homo sapiens, UniProt P11802).
T1 construct: endogenous in cells
As to the kind of experiment: CDK4 degradation (DC50, Dmax).

For experiment [3], the target named is T2, CDK6 (Homo sapiens, UniProt Q00534).
T2 construct: endogenous in cells
T2 sequence (Q00534 whole entry): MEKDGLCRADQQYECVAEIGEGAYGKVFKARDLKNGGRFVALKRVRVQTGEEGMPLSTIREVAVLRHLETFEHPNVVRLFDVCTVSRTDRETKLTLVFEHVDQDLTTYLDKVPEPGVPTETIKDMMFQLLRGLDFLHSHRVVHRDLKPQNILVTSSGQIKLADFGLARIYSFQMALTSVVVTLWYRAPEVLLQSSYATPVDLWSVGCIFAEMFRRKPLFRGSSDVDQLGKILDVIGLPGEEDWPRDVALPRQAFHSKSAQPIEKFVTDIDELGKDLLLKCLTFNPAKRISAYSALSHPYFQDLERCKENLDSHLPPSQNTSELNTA
The experiment can be described thus: CDK6 degradation (DC50, Dmax).

Where [4] appears, read: 72 h, mantle cell lymphoma cell (Mino or JeKo-1), MTS assay, read-out: IC50 (anti-proliferation).

Each structure is given as a SMILES string. Read-outs that look alike come from different tables or passages of the source.

T1 sequence (P11802 whole entry): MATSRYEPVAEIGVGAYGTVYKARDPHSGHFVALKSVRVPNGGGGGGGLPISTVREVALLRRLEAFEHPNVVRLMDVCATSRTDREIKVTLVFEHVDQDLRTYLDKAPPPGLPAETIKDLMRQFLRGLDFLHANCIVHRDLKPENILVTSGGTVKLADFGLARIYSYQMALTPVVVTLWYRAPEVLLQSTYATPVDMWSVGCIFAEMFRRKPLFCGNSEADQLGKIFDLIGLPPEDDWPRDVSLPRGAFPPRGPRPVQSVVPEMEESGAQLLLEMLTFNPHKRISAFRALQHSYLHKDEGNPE

On to `CC(=O)c1c(C)c2cnc(Nc3ccc(N4CCN(C(=O)N5CCN(c6ccc7c(c6)C(=O)N(C6CCC(=O)NC6=O)C7=O)CC5)CC4)cn3)nc2n(C2CCCC2)c1=O` (centres unmarked) [Compound 1, 5-(4-(4-(6-((6-acetyl-8-cyclopentyl-5-methyl-7-oxo-7,8-dihydropyrido[2,3-d]pyrimidin-2-yl)amino)pyridin-3-yl)piperazine-1-carbonyl)piperazin-1-yl)-2-(2,6-dioxopiperidin-3-yl) isoindoline-1,3-dione], for which, in experiment [1] (mantle cell lymphoma cell (Mino or JeKo-1); MTS assay, 72 h; read-out: IC50 (anti-proliferation)), the IC50 was below 50 nM. In experiment [2], the 50% degradation concentration (DC50) lay within 50 to 200 nM and the Dmax was above 60%. Further, in experiment [3], the DC50 was below 50 nM and the Dmax was above 60%.
In the case of `CC(=O)c1c(C)c2cnc(Nc3ccc(N4CCN(C(=O)N5CCN(c6ccc7c(c6)CN(C6CCC(=O)NC6=O)C7=O)CC5)CC4)cn3)nc2n(C2CCCC2)c1=O` (centres unmarked) [Compound 2, 3-(5-(4-(4-(6-((6-acetyl-8-cyclopentyl-5-methyl-7-oxo-7,8-dihydropyrido[2,3-d]pyrimidin-2-yl)amino)pyridin-3-yl)piperazine-1-carbonyl)piperazin-1-yl)-1-oxoisoindolin-2-yl)piperidine-2,6-dione], the IC50 in experiment [1] (setting [4]) lay within 50 to 200 nM. In experiment [2], this molecule gave a DC50 above 200 nM and a Dmax above 60%. In experiment [3], this molecule had a DC50 above 200 nM and a Dmax above 60%.
With `CC(=O)c1c(C)c2cnc(Nc3ccc(N4CCN(C(=O)N5CCC(N6CCN(c7ccc8c(c7)C(=O)N(C7CCC(=O)NC7=O)C8=O)CC6)CC5)CC4)cn3)nc2n(C2CCCC2)c1=O` (centres unmarked) [Compound 3, 5-(4-(1-(4-(6-((6-acetyl-8-cyclopentyl-5-methyl-7-oxo-7,8-dihydropyrido[2,3-d]pyrimidin-2-yl)amino)pyridin-3-yl)piperazine-1-carbonyl)piperidin-4-yl)piperazin-1-yl)-2-(2,6-dioxopiperidin-3-yl)isoindoline-1,3-dione], the IC50 in experiment [1] (setting [4]) fell in the range of 50 to 200 nM. In addition, the DC50 in experiment [2] and in experiment [3] was above 200 nM throughout. The Dmax in experiment [2] and in experiment [3] was above 50% throughout.
For `CC(=O)c1c(C)c2cnc(Nc3ccc(N4CCN(C(=O)N5CCC(N6CCN(c7ccc8c(c7)CN(C7CCC(=O)NC7=O)C8=O)CC6)CC5)CC4)cn3)nc2n(C2CCCC2)c1=O` (centres unmarked) [Compound 4, 3-(5-(4-(1-(4-(6-((6-acetyl-8-cyclopentyl-5-methyl-7-oxo-7,8-dihydropyrido[2,3-d]pyrimidin-2-yl)amino)pyridin-3-yl)piperazine-1-carbonyl)piperidin-4-yl)piperazin-1-yl)-1-oxoisoindolin-2-yl)piperidine-2,6-dione], the IC50 in experiment [1] (setting [4]) lay in the range of 50 to 200 nM. In experiment [2], this molecule registered a DC50 above 200 nM and a Dmax above 50%. Moreover, in experiment [3], the half-maximal degradation concentration (DC50) is above 200 nM and the Dmax was above 50%.
For the molecule `CC(=O)c1c(C)c2cnc(Nc3ccc(N4CCN(C(=O)N5CCN(C6CCN(c7ccc8c(c7)C(=O)N(C7CCC(=O)NC7=O)C8=O)CC6)CC5)CC4)cn3)nc2n(C2CCCC2)c1=O` (centres unmarked) [Compound 5, 5-(4-(4-(4-(6-((6-acetyl-8-cyclopentyl-5-methyl-7-oxo-7,8-dihydropyrido[2,3-d]pyrimidin-2-yl)amino)pyridin-3-yl)piperazine-1-carbonyl)piperazin-1-yl)piperidin-1-yl)-2-(2,6-dioxopiperidin-3-yl)isoindoline-1,3-dione], the IC50 in experiment [1] (setting [4]) lay in the range of 50 to 200 nM. Besides, the 50% degradation concentration (DC50) in experiment [2] and in experiment [3] was above 200 nM in each case. In addition, the greatest degradation seen (Dmax) in experiment [2] and in experiment [3] was above 60% each time.
Regarding `CC(=O)c1c(C)c2cnc(Nc3ccc(N4CCN(C(=O)N5CCN(C6CCN(c7ccc8c(c7)CN(C7CCC(=O)NC7=O)C8=O)CC6)CC5)CC4)cn3)nc2n(C2CCCC2)c1=O` (centres unmarked) [Compound 6, 3-(5-(4-(4-(4-(6-((6-acetyl-8-cyclopentyl-5-methyl-7-oxo-7,8-dihydropyrido[2,3-d]pyrimidin-2-yl)amino)pyridin-3-yl)piperazine-1-carbonyl)piperazin-1-yl)piperidin-1-yl)-1-oxoisoindolin-2-yl)piperidine-2,6-dione], in experiment [1] (setting [4]), the IC50 is above 200 nM. In addition, in experiment [2], the 50% degradation concentration (DC50) is above 200 nM and the maximal degradation (Dmax) is above 50%. In experiment [3], the DC50 is above 200 nM and the Dmax was above 50%.
Turning to `CC(=O)c1c(C)c2cnc(Nc3ccc(N4CCN(C(=O)N5CCC(N6CCC(c7ccc8c(c7)C(=O)N(C7CCC(=O)NC7=O)C8=O)CC6)CC5)CC4)cn3)nc2n(C2CCCC2)c1=O` (centres unmarked) [Compound 7, 5-(1′-(4-(6-((6-acetyl-8-cyclopentyl-5-methyl-7-oxo-7,8-dihydropyrido[2,3-d]pyrimidin-2-yl)amino)pyridin-3-yl)piperazine-1-carbonyl)-[1,4′-bipiperidin]-4-yl)-2-(2,6-dioxopiperidin-3-yl)isoindoline-1,3-dione], the IC50 in experiment [1] (setting [4]) fell in the range of 50 to 200 nM. Further, in experiment [2], the DC50 fell in the range of 50 to 200 nM and the greatest degradation seen (Dmax) was above 60%. For the same molecule, in experiment [3], the DC50 is 50 to 200 nM and the Dmax was above 60%.
Consider `CC(=O)c1c(C)c2cnc(Nc3ccc(N4CCN(C(=O)N5CCC(N6CCC(c7ccc8c(c7)CN(C7CCC(=O)NC7=O)C8=O)CC6)CC5)CC4)cn3)nc2n(C2CCCC2)c1=O` (centres unmarked) [Compound 8, 3-(5-(1′-(4-(6-((6-acetyl-8-cyclopentyl-5-methyl-7-oxo-7,8-dihydropyrido[2,3-d]pyrimidin-2-yl)amino)pyridin-3-yl)piperazine-1-carbonyl)-[1,4′-bipiperidin]-4-yl)-1-oxoisoindolin-2-yl)piperidine-2,6-dione], for which the IC50 in experiment [1] (setting [4]) was above 200 nM. Besides, in experiment [2], the DC50 was above 200 nM and the Dmax was above 60%. In experiment [3], this molecule came in with a DC50 above 200 nM and a maximal degradation (Dmax) above 50%.
Take `CC(=O)c1c(C)c2cnc(Nc3ccc(N4CCN(C(=O)N5CCC(C6CCN(c7ccc8c(c7)C(=O)N(C7CCC(=O)NC7=O)C8=O)CC6)CC5)CC4)cn3)nc2n(C2CCCC2)c1=O` (centres unmarked) [Compound 9, 5-(1′-(4-(6-((6-acetyl-8-cyclopentyl-5-methyl-7-oxo-7,8-dihydropyrido[2,3-d]pyrimidin-2-yl)amino)pyridin-3-yl)piperazine-1-carbonyl)-[4,4′-bipiperidin]-1-yl)-2-(2,6-dioxopiperidin-3-yl)isoindoline-1,3-dione]: the IC50 in experiment [1] (setting [4]) was above 200 nM. Also, the half-maximal degradation concentration (DC50) in experiment [2] and in experiment [3] was above 200 nM throughout. The Dmax in experiment [2] and in experiment [3] was above 50% in each case.
Take `CC(=O)c1c(C)c2cnc(Nc3ccc(N4CCN(C(=O)N5CCC(C6CCN(c7ccc8c(c7)CN(C7CCC(=O)NC7=O)C8=O)CC6)CC5)CC4)cn3)nc2n(C2CCCC2)c1=O` (centres unmarked) [Compound 10, 3-(5-(1′-(4-(6-((6-acetyl-8-cyclopentyl-5-methyl-7-oxo-7,8-dihydropyrido[2,3-d]pyrimidin-2-yl)amino)pyridin-3-yl)piperazine-1-carbonyl)-[4,4′-bipiperidin]-1-yl)-1-oxoisoindolin-2-yl)piperidine-2,6-dione]: the IC50 in experiment [1] (setting [4]) is above 200 nM. Also, in experiment [2], the half-maximal degradation concentration (DC50) was above 200 nM and the Dmax was above 50%. In experiment [3], the half-maximal degradation concentration (DC50) was above 200 nM and the maximal degradation (Dmax) is above 50%.
With `CC(=O)c1c(C)c2cnc(Nc3ccc(N4CCN(C(=O)N5CCC(CN6CCN(c7ccc8c(c7)C(=O)N(C7CCC(=O)NC7=O)C8=O)CC6)CC5)CC4)cn3)nc2n(C2CCCC2)c1=O` (centres unmarked) [Compound 11], in experiment [1] (setting [4]), the IC50 fell in the range of 50 to 200 nM. In experiment [2], this molecule returned a 50% degradation concentration (DC50) of 50 to 200 nM and a Dmax above 60%. In experiment [3], this molecule had a DC50 of 50 to 200 nM and a Dmax above 60%.
Take `CC(=O)c1c(C)c2cnc(Nc3ccc(N4CCN(C(=O)N5CCC(CN6CCN(c7ccc8c(c7)CN(C7CCC(=O)NC7=O)C8=O)CC6)CC5)CC4)cn3)nc2n(C2CCCC2)c1=O` (centres unmarked) [Compound 12, 3-(5-(4-((1-(4-(6-((6-acetyl-8-cyclopentyl-5-methyl-7-oxo-7,8-dihydropyrido[2,3-d]pyrimidin-2-yl)amino)pyridin-3-yl)piperazine-1-carbonyl)piperidin-4-yl)methyl)piperazin-1-yl)-1-oxoisoindolin-2-yl)piperidine-2,6-dione]: in experiment [1] (setting [4]), the IC50 was in the range of 50 to 200 nM. The DC50 in experiment [2] and in experiment [3] was above 200 nM in each case. The Dmax in experiment [2] and in experiment [3] was above 60% in each case.
With `CC(=O)c1c(C)c2cnc(Nc3ccc(N4CCN(C(=O)N5CCC(CC6CCN(c7ccc8c(c7)C(=O)N(C7CCC(=O)NC7=O)C8=O)CC6)CC5)CC4)cn3)nc2n(C2CCCC2)c1=O` (centres unmarked) [Compound 13, 5-(4-((1-(4-(6-((6-acetyl-8-cyclopentyl-5-methyl-7-oxo-7,8-dihydropyrido[2,3-d]pyrimidin-2-yl)amino)pyridin-3-yl)piperazine-1-carbonyl)piperidin-4-yl)methyl)piperidin-1-yl)-2-(2,6-dioxopiperidin-3-yl)isoindoline-1,3-dione], the IC50 in experiment [1] (setting [4]) lay within 50 to 200 nM. Besides, in experiment [2], the half-maximal degradation concentration (DC50) was 50 to 200 nM and the Dmax was above 60%. In experiment [3], the DC50 fell in the range of 50 to 200 nM and the Dmax is above 60%.

In general, DC50 refers to the concentration giving 50% degradation. The term Dmax denotes the largest share of the target that was removed. A high value points to a fuller loss of target.

For the origin of these results see US20230295118A1 (EnhancedBio Inc., priority 2022, published 2023).
